This note sets out measurements from patent US9969726B2, “Metabotropic glutamate receptor negative allosteric modulators (NAMS) and uses thereof” (Sanford-Burnham Medical Research Institute, priority 2014, dated 2018).

Like-named read-outs stand apart in the source and are kept apart here.

Assay [1] concerns the target rat mGlu3 receptor (Rattus norvegicus (Rat), UniProt P31422). Put plainly: mGlu3 in vitro GIRK thallium flux assay. It counts as cell-based. As to conditions: NAM; 2.5 min compound incubation; EC80 glutamate; HEK-293 GIRK cells. Put shortly: (§1)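 Cells expressing rat mGlu2 or mGlu3 with GIRK, plated overnight at 37 °C. Test compounds (0.3% DMSO, 10-point 1:3 series) preincubated 2.5 or 60 min, then thallium buffer plus EC80 glutamate added. Fluorescence slope 5–15 s after addition, normalised to vehicle and maximal agonist, fitted by four-parameter logistic.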

Assay [2] has as its target rat mGlu2 receptor (Rattus norvegicus (Rat), UniProt P31421). Description: mGlu2 in vitro GIRK thallium flux assay. It counts as cell-based. As to conditions: NAM, EC80 glutamate, HEK-293 GIRK cells. A digest of the protocol:
as §1

[3] abbreviates: 2.5 min compound incubation, read-out: mGlu2 EC50 (μM) (2.5 min).
Where [4] appears, read: mGlu2 EC50 (μM) (60 min), 60 min compound incubation.
The mark [5] stands for this setting: read-out: mGlu2 EC50 (μM) (60 min), 60 min compound incubation.

Sequence of rat mGlu3 receptor (P31422 23-879): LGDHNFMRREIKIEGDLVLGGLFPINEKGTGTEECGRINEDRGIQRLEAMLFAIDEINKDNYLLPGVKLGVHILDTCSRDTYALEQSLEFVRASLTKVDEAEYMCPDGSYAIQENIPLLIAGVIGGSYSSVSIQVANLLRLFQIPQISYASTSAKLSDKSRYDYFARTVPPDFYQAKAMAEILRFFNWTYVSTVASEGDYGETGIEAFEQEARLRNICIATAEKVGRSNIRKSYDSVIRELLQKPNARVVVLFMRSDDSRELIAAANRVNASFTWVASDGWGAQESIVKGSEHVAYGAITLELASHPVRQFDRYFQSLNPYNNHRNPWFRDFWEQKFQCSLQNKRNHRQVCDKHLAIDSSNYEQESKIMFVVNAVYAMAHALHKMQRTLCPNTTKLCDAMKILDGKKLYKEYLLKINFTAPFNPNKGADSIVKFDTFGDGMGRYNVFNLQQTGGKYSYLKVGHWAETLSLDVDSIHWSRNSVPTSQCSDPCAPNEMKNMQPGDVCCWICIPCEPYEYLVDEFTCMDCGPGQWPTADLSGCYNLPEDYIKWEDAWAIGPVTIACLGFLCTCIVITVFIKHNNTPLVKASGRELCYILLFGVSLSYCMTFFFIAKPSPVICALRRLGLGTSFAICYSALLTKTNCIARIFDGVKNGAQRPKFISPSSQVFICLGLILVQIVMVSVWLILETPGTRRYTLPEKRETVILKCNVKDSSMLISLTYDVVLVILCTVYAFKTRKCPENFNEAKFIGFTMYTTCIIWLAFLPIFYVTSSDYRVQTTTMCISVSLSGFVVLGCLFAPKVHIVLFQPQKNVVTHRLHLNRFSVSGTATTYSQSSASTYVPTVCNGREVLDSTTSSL
Sequence of rat mGlu2 receptor (P31421 19-872): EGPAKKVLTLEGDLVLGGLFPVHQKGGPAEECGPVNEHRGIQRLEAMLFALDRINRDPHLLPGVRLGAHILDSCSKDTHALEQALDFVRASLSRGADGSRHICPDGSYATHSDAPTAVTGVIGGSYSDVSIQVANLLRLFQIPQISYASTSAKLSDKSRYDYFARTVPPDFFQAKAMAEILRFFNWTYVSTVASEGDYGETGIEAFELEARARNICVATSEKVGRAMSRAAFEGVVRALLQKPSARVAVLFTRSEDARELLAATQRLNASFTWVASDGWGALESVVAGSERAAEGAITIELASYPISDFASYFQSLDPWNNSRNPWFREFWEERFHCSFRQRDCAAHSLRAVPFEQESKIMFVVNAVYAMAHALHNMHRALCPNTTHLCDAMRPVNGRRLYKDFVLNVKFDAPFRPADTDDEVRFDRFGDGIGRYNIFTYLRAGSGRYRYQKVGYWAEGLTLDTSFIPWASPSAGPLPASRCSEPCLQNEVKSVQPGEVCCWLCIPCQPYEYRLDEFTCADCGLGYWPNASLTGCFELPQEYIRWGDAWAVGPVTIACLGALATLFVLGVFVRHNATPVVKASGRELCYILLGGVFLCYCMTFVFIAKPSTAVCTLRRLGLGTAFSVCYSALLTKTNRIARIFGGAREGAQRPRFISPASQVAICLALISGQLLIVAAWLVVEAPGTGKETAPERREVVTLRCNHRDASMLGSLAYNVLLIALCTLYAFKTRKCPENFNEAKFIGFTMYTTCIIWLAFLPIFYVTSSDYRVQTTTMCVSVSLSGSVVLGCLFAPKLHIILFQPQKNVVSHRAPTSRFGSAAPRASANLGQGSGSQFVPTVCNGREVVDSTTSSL

As for `O=C(O)c1cccc(-c2cccc(-c3nc(-c4ccoc4)n(-c4ccccc4)n3)c2)c1` [Example 59, 3′-(5-(Furan-3-yl)-1-phenyl-1H-1,2,4-triazol-3-yl)-[1,1′-biphenyl]-3-carboxylic acid], the concentration giving a half-maximal response (EC50) – broadly, the concentration needed to bring the measured effect to its halfway point – in assay [1] is over 10 µM; in assay [2] (setting [3]), over 10 µM; in assay [2] (setting [4]) it was 3.78 µM.
As to `O=C(O)c1ccc(-c2cccc(-c3nc(-c4ccccc4)n(-c4ccccc4)n3)c2)cc1` [Example 60, 3′-(1,5-Diphenyl-1H-1,2,4-triazol-3-yl)-[1,1′-biphenyl]-4-carboxylic Acid], the EC50 was 5.3 µM in assay [1], over 10 µM in assay [2] (setting [3]) and over 10 µM in assay [2] (setting [4]).
Take `O=C(O)c1ccccc1-c1cccc(-c2nc(-c3ccccc3)n(-c3ccccc3)n2)c1` [Example 61, 3′-(1,5-Diphenyl-1H-1,2,4-triazol-3-yl)-[1,1′-biphenyl]-2-carboxylic Acid]: the EC50 was over 10 µM in assay [1], over 30 µM in assay [2] (setting [3]) and over 30 µM in assay [2] (setting [5]).
On to `O=C(O)c1ccoc1-c1cccc(-c2nc(-c3ccccc3)n(-c3ccccc3)n2)c1` [Example 62, 2-(3-(1,5-Diphenyl-1H-1,2,4-triazol-3-yl)phenyl)furan-3-carboxylic Acid], for which the EC50 was 0.21 µM in assay [1], over 10 µM in assay [2] (setting [3]) and over 30 µM in assay [2] (setting [4]).
In the case of `O=C(O)c1ccc(F)c(-c2cccc(-c3nc(-c4ccccc4)n(-c4ccccc4)n3)c2)c1` [Example 63, 3′-(1,5-Diphenyl-1H-1,2,4-triazol-3-yl)-6-fluoro-[1,1′-biphenyl]-3-carboxylic acid], the EC50 was 4.45 µM in assay [1], over 10 µM in assay [2] (setting [3]) and over 10 µM in assay [2] (setting [4]).
Consider `CC(C)n1nc(-c2cccc(-c3cccc(C(=O)O)c3)c2)nc1-c1ccccc1` [Example 64, 3′-(1-Isopropyl-5-phenyl-1H-1,2,4-triazol-3-yl)-[1,1′-biphenyl]-3-carboxylic acid], for which the EC50 in assay [1] is over 10 µM; in assay [2] (setting [3]), over 10 µM; in assay [2] (setting [4]), over 30 µM.
On to `O=C(O)c1cccc(-c2cccc(-c3n[nH]c(-c4ccccc4)n3)c2)c1` [Example 65, 3′-(5-Phenyl-1H-1,2,4-triazol-3-yl)-[1,1′-biphenyl]-3-carboxylic Acid], for which the values for the EC50 in assay [1], in assay [2] (setting [3]) and in assay [2] (setting [4]) were over 30 µM, over 10 µM and over 30 µM, respectively.
On to `O=C(O)c1cccc(-c2cccc(-c3nc(-c4ccccc4)nn3-c3ccccc3)c2)c1` [Example 66, 3′-(1,3-Diphenyl-1H-1,2,4-triazol-5-yl)-[1,1′-biphenyl]-3-carboxylic Acid], for which the EC50 in assay [1], in assay [2] (setting [3]) and in assay [2] (setting [5]) was over 10 µM throughout.
Turning to `O=C(O)c1cccc(-c2cccc(-c3cn(-c4ccccc4)c(-c4ccccc4)n3)c2)c1` [Example 67, 3′-(1,2-Diphenyl-1H-imidazol-4-yl)-[1,1′-biphenyl]-3-carboxylic Acid], the EC50 in assay [1], in assay [2] (setting [3]) and in assay [2] (setting [5]) was over 10 µM in each case.
Turning to `O=C(O)c1cccc(-c2cccc(-c3cc(-c4ccccc4)[nH]n3)c2)c1` [Example 68, 3′-(5-Phenyl-1H-pyrazol-3-yl)-[1,1′-biphenyl]-3-carboxylic Acid], the EC50 in assay [1] is over 10 µM; in assay [2] (setting [3]), over 10 µM; in assay [2] (setting [5]), over 30 µM.
Consider `O=C(O)c1cccc(-c2cccc(-c3nc(-c4ccc(C(F)(F)F)nc4)cc(C(F)(F)F)n3)c2)c1` [Example 69, 3′-(4-(Trifluoromethyl)-6-(6-(trifluoromethyl)pyridin-3-yl)pyrimidin-2-yl)biphenyl-3-carboxylic Acid], for which the results for the EC50 in assay [1], in assay [2] (setting [3]) and in assay [2] (setting [5]) were 1.07 µM, 0.95 µM and 0.11 µM, respectively.
Turning to `O=C(O)c1cc(-c2cccc(-c3nc(-c4ccc(C(F)(F)F)nc4)cc(C(F)(F)F)n3)c2)ccc1Cl` [Example 70, 4-Chloro-3′-(4-(trifluoromethyl)-6-(6-(trifluoromethyl)pyridin-3-yl)pyrimidin-2-yl)biphenyl-3-carboxylic Acid], the EC50 is 1.58 µM in assay [1], 1.26 µM in assay [2] (setting [3]) and 0.2 µM in assay [2] (setting [5]).
The like results for `O=C(O)c1ccc(-c2cccc(-c3nc(-c4ccc(C(F)(F)F)nc4)cc(C(F)(F)F)n3)c2)cc1` [Example 71, 3′-(4-(Trifluoromethyl)-6-(6-(trifluoromethyl)pyridin-3-yl)pyrimidin-2-yl)biphenyl-4-carboxylic Acid] were, in that order, over 10 µM, over 10 µM and over 10 µM.
In the case of `O=C(O)c1ccccc1-c1cccc(-c2nc(-c3ccc(C(F)(F)F)nc3)cc(C(F)(F)F)n2)c1` [Example 72, 3′-(4-(Trifluoromethyl)-6-(6-(trifluoromethyl)pyridin-3-yl)pyrimidin-2-yl)biphenyl-2-carboxylic Acid], the EC50 in assay [1], in assay [2] (setting [3]) and in assay [2] (setting [5]) was over 10 µM each time.
With `O=C(O)c1ccc(-c2cccc(-c3nc(-c4ccc(C(F)(F)F)nc4)cc(C(F)(F)F)n3)c2)cc1Cl` [Example 74, 3-Chloro-3′-(4-(trifluoromethyl)-6-(6-(trifluoromethyl)pyridin-3-yl)pyrimidin-2-yl)biphenyl-4-carboxylic Acid], the results for the EC50 in assay [1], in assay [2] (setting [3]) and in assay [2] (setting [5]) were 6.52 µM, 6.76 µM and over 10 µM, respectively.
As for `O=C(O)c1cc(-c2cccc(-c3nc(-c4ccc(C(F)(F)F)nc4)cc(C(F)(F)F)n3)c2)cc([N+](=O)[O-])c1` [Example 75, 5-Nitro-3′-(4-(trifluoromethyl)-6-(6-(trifluoromethyl)pyridin-3-yl)pyrimidin-2-yl)biphenyl-3-carboxylic Acid], the results for the EC50 in assay [1], in assay [2] (setting [3]) and in assay [2] (setting [5]) were over 10 µM, 1.27 µM and 0.5 µM, respectively.
For `COc1ccc(C(=O)O)cc1-c1cccc(-c2nc(-c3ccc(C(F)(F)F)nc3)cc(C(F)(F)F)n2)c1` [Example 77, 6-Methoxy-3′-(4-(trifluoromethyl)-6-(6-(trifluoromethyl)pyridin-3-yl)pyrimidin-2-yl)biphenyl-3-carboxylic Acid], in that order: 1.59 µM, 0.96 µM and 0.29 µM.
For the molecule `O=C(O)c1ccc(-c2cccc(-c3nc(-c4ccc(C(F)(F)F)nc4)cc(C(F)(F)F)n3)c2)c(Cl)c1` [Example 78, 2-Chloro-3′-(4-(trifluoromethyl)-6-(6-(trifluoromethyl)pyridin-3-yl)pyrimidin-2-yl)biphenyl-4-carboxylic Acid], the results for the EC50 in assay [1], in assay [2] (setting [3]) and in assay [2] (setting [5]) were 6.32 µM, 3.49 µM and 1.18 µM, respectively.
For `O=C(O)c1ccc(-c2cccc(-c3nc(-c4ccc(C(F)(F)F)nc4)cc(C(F)(F)F)n3)c2)s1` [Example 80, 5-(3-(4-(Trifluoromethyl)-6-(6-(trifluoromethyl)pyridin-3-yl)pyrimidin-2-yl)phenyl)thiophene-2-carboxylic Acid], in that order: 2.4 µM, 0.78 µM and 0.13 µM.
`O=C(O)c1ccc(-c2ccc(-c3nc(-c4ccc(C(F)(F)F)nc4)cc(C(F)(F)F)n3)cc2)cc1` [Example 81, 4′-(4-(Trifluoromethyl)-6-(6-(trifluoromethyl)pyridin-3-yl)pyrimidin-2-yl)biphenyl-4-carboxylic Acid]: the EC50 is 2.13 µM in assay [1], 3.78 µM in assay [2] (setting [3]) and 0.44 µM in assay [2] (setting [5]).
As to `O=C(O)c1cc(-c2ccc(-c3nc(-c4ccc(C(F)(F)F)nc4)cc(C(F)(F)F)n3)cc2)ccc1F` [Example 82, 4-Fluoro-4′-(4-(trifluoromethyl)-6-(6-(trifluoromethyl)pyridin-3-yl)pyrimidin-2-yl)biphenyl-3-carboxylic Acid], the EC50 in assay [1] was 1.32 µM; in assay [2] (setting [3]), 1.42 µM; in assay [2] (setting [5]) it was 0.49 µM.
For `O=C(O)c1cc(-c2ccc(-c3nc(-c4ccc(C(F)(F)F)nc4)cc(C(F)(F)F)n3)cc2)ccc1Cl` [Example 83, 4-Chloro-4′-(4-(trifluoromethyl)-6-(6-(trifluoromethyl)pyridin-3-yl)pyrimidin-2-yl)biphenyl-3-carboxylic Acid], in that order: over 10 µM, 2.95 µM and 1.23 µM.
With `O=C(O)c1cc(F)cc(-c2ccc(-c3nc(-c4ccc(C(F)(F)F)nc4)cc(C(F)(F)F)n3)cc2)c1` [Example 84, 5-Fluoro-4′-(4-(trifluoromethyl)-6-(6-(trifluoromethyl)pyridin-3-yl)pyrimidin-2-yl)biphenyl-3-carboxylic Acid], the values for the half-maximal effective concentration (EC50) in assay [1] and in assay [2] (setting [3]) were 4.91 µM and 2.79 µM, respectively.
With `CNC(=O)c1cc(-c2cccc(-c3nc(-c4ccc(C(F)(F)F)nc4)cc(C(F)(F)F)n3)c2)ccc1Cl` [Example 85, 4-Chloro-N-methyl-3′-(4-(trifluoromethyl)-6-(6-(trifluoromethyl)pyridin-3-yl)pyrimidin-2-yl)biphenyl-3-carboxamide], the figures for the EC50 in assay [1], in assay [2] (setting [3]) and in assay [2] (setting [5]) were over 30 µM, over 30 µM and over 10 µM, respectively.
In the case of `O=C(O)c1cc(-c2cccc(-c3nc(-c4cccs4)cc(C(F)(F)F)n3)c2)ccc1F` [Example 87A, 4-Fluoro-3′-(4-(thiophen-2-yl)-6-(trifluoromethyl)pyrimidin-2-yl)biphenyl-3-carboxylic Acid], the EC50 in assay [1] was found to be 1.26 µM; in assay [2] (setting [3]) it was 1.12 µM; in assay [2] (setting [5]), 0.24 µM.
For `O=C(O)c1cc(-c2cccc(-c3nc(-c4ccco4)cc(C(F)(F)F)n3)c2)ccc1F` [Example 88, 4-Fluoro-3′-(4-(furan-2-yl)-6-(trifluoromethyl)pyrimidin-2-yl)biphenyl-3-carboxylic Acid], in that order: 1.13 µM, 0.68 µM and 0.34 µM.
